According to paper PMC3915329 (Journal of Ginseng Research, 2013):

These molecules were tested against T1, protein tyrosine phosphatase 1B (PTP1B) (Homo sapiens, UniProt P18031) (assay: Inhibitory activity against PTP1B assay).
T1 sequence (P18031 1-435): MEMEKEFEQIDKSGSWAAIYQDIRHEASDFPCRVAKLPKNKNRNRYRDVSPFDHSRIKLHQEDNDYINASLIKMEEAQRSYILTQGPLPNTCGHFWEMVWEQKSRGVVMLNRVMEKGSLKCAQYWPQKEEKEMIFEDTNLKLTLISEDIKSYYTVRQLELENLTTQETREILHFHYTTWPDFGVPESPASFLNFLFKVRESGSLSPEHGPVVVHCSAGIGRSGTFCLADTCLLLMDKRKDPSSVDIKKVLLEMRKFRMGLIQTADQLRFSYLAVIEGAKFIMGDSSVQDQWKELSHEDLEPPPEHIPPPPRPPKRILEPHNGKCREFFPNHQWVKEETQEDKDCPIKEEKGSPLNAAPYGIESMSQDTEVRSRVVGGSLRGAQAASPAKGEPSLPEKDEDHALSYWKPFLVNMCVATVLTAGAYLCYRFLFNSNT
Format: biochemical
`CC(C)=CCC[C@](C)(O[C@@H]1O[C@H](CO[C@@H]2O[C@H](CO)[C@@H](O)[C@H](O)[C@H]2O)[C@@H](O)[C@H](O)[C@H]1O)[C@H]1CC[C@]2(C)[C@@H]1[C@H](O)C[C@@H]1[C@@]3(C)CC[C@H](O[C@@H]4O[C@H](CO)[C@@H](O)[C@H](O)[C@H]4O[C@@H]4O[C@H](CO)[C@@H](O)[C@H](O)[C@H]4O)C(C)(C)[C@@H]3CC[C@]12C` [Compound 5, ginsenoside-Rb1] gave an IC50 greater than 100 µM.
With `CC(C)=CCC[C@](C)(O[C@@H]1O[C@H](CO[C@@H]2O[C@@H](CO)[C@H](O)[C@H]2O)[C@@H](O)[C@H](O)[C@H]1O)[C@H]1CC[C@]2(C)[C@@H]1[C@H](O)C[C@@H]1[C@@]3(C)CC[C@H](O[C@@H]4O[C@H](CO)[C@@H](O)[C@H](O)[C@H]4O[C@@H]4O[C@H](CO)[C@@H](O)[C@H](O)[C@H]4O)C(C)(C)[C@@H]3CC[C@]12C` [Compound 8, ginsenoside-Rc] the IC50 was greater than 100 µM.
For `CC(C)=CCC[C@](C)(O[C@@H]1O[C@H](CO)[C@@H](O)[C@H](O)[C@H]1O)[C@H]1CC[C@]2(C)[C@@H]1[C@H](O)C[C@@H]1[C@@]3(C)CC[C@H](O[C@@H]4O[C@H](CO)[C@@H](O)[C@H](O)[C@H]4O[C@@H]4O[C@H](CO)[C@@H](O)[C@H](O)[C@H]4O)C(C)(C)[C@@H]3CC[C@]12C` [Compound 9, ginsenoside-Rd], the IC50 was greater than 100 µM.
`CC(C)=CCC[C@](C)(O[C@@H]1O[C@H](CO)[C@@H](O)[C@H](O)[C@H]1O)[C@H]1CC[C@]2(C)[C@@H]1[C@H](O)C[C@@H]1[C@@]3(C)CC[C@H](O)C(C)(C)[C@@H]3[C@@H](O)C[C@]12C` [Compound 14, ginsenoside-F1] was tested, and the IC50 was greater than 100 µM.
For `CC1(C)CCC[C@](C)([C@H]2CC[C@]3(C)[C@@H]2[C@H](O)C[C@@H]2[C@@]4(C)CC[C@H](O)C(C)(C)[C@@H]4CC[C@]23C)O1` [Compound 18, panaxadiol], the IC50 was greater than 100 µM.
